Experimental data reported in patent US20220151955A1, “KETAMINE FOR THE TREATMENT OF […] AND DISORDERS” (The Ketamine Research Foundation, priority 2019, published 2022).

Tests used:
[1] = cited from earlier work
[2] = system: women with postpartum depression; settings: cited from earlier work
[3] = in vivo; cited from earlier work
[4] = Ketamine levels in the breast milk of lactating women after intramuscular ketamine hydrochloride; format: in vivo; settings: 0.5 and 1.0 mg/kg intramuscular
Description: A study of the pharmacodynamics of ketamine in the breast milk of lactating women was performed. Ketamine levels in breast milk were quantified in lactating subjects over time. Four women were given intramuscular injections of ketamine hydrochloride at two doses: 0.5 mg/kg and 1.0 mg/kg at intervals of at least one week apart. Breast milk was collected in one subject at 3 hour intervals through 24 hours, and the succeeding three subjects at 3 hour intervals up to 12 hours. Subjects were of different weights and ethnic backgrounds.
Administered dosages of ketamine ranged from 28 mg to 76 mg. […] For subjects receiving the 0.5 mg/kg dose, the observed range for ketamine in the breast milk of the subject at the 9 to 12 hour collection period (total expression of milk during the period) ranged from 0.09 mg to 1.66 mg. For subjects receiving the 1.0 mg/kg dose, the observed range for ketamine in the breast milk of the subject at the 9 to 12 hour collection period (total expression of milk during the period) ranged from 1.067 mg to 6.22 mg. The highest ketamine level (6.22 mg) was observed following administration of a 76 mg dose of ketamine hydrochloride.

CN[C@]1(c2ccccc2Cl)CCCCC1=O [S-(+)-ketamine]
potency relative to R-(−)-ketamine ([1]; for use in anesthesia): twice as potent as R-(−)-ketamine

CC(=O)[C@H]1CC[C@H]2[C@@H]3CC[C@H]4C[C@H](O)CC[C@]4(C)[C@H]3CC[C@]12C [brexanolone]
women no longer clinically depressed ([2]; within 60 hours, intravenous over 60 hours, two clinical trials of about 250 women, placebo 25 percent): 50%
adverse effects experienced by some women ([2]; women who received brexanolone): excessive sedation and sudden loss of consciousness

CNC1(c2ccccc2Cl)CCCCC1=O (centres unmarked) [ketamine]
half-life [3]: less than two and a half hours
levels detectable in breast milk at 12 hours [4]: only minimal levels

NC1(c2ccccc2Cl)CCCCC1=O (centres unmarked) [norketamine]
potency relative to ketamine (estimated) ([1]; active metabolite, as stated in Example 1): one-third the potency of ketamine
potency relative to ketamine ([1]; for use in anesthesia): one third the potency of ketamine
levels detectable in breast milk at 12 hours [4]: only minimal levels
